Reference: patent US4800199A, “3-[2-thiazoloamino]-8-oxo-7-substituted-5-thia-1-a zabicyclo-[4.2.0]oct-2-ene-2-carboxylic acid and salts thereof and diphenylmethyl esters thereof” (American Cyanamid Company, priority 1986, dated 1989)
Converted amounts (≈) assume the structure as drawn.

Assays:
Experiment in all cases: In vitro antibacterial activity, Mueller-Hinton agar dilution
Assay type in all cases: cell-based
Acinetobacter STFD 79-17 = details: STFD7917, read-out: Minimal Inhibitory Concentration
Description: (§1) The results of this test on representative compounds of this invention appear in Table I.

Bacillus cereus LL No. 4 = details: LLNO.4, read-out: Minimal Inhibitory Concentration
Description: as §1

[1] = test system: Bacillus subtilis ATCC 6633; details: ATCC6633, read-out: Minimal Inhibitory Concentration
Description: as §1

Candida albicans CA 300 = details: CA300, read-out: Minimal Inhibitory Concentration
Description: as §1

[2] = test system: Citrobacter freundii K81-28; details: K8128, read-out: Minimal Inhibitory Concentration
Description: as §1

[3] = test system: Enterobacter cloacae K79-16; details: K7916, read-out: Minimal Inhibitory Concentration
Description: as §1

Enterococcus OSU 75-1 = details: OSU751, read-out: Minimal Inhibitory Concentration
Description: as §1

Enterococcus SM 77-15 = details: SM7715, read-out: Minimal Inhibitory Concentration
Description: as §1

Escherichia coli 311 = details: read-out: Minimal Inhibitory Concentration
Description: as §1

[4] = test system: Escherichia coli ATCC 25922; details: ATCC25922, read-out: Minimal Inhibitory Concentration
Description: as §1

Klebsiella pneumoniae AD = details: read-out: Minimal Inhibitory Concentration
Description: as §1

[5] = test system: Micrococcus lutea PC 1001; details: PC1001, read-out: Minimal Inhibitory Concentration
Description: as §1

[6] = test system: Mycobacterium smegmatis ATCC 607; details: Mycolicibacterium smegmatis, ATCC607, read-out: Minimal Inhibitory Concentration
Description: as §1

Proteus morganii K79-25 = details: Morganella morganii, K7925, read-out: Minimal Inhibitory Concentration
Description: as §1

[7] = test system: Pseudomonas aeruginosa 12-4-4; details: 1244, read-out: Minimal Inhibitory Concentration
Description: as §1

[8] = test system: Pseudomonas aeruginosa ATCC 27853; details: ATCC27853, read-out: Minimal Inhibitory Concentration
Description: as §1

Saccharomyces Y 15 = details: Y15, read-out: Minimal Inhibitory Concentration
Description: as §1

Salmonella QHC 77-3 = details: QHC773, read-out: Minimal Inhibitory Concentration
Description: as §1

Serratia Tul 78-15 = details: TUL7815, read-out: Minimal Inhibitory Concentration
Description: as §1

[9] = test system: Staphylococcus aureus ATCC 25923; details: ATCC25923, read-out: Minimal Inhibitory Concentration
Description: as §1

[10] = test system: Staphylococcus aureus LL No. 14; details: LLNO.14, read-out: Minimal Inhibitory Concentration
Description: as §1

[11] = test system: Staphylococcus aureus LL No. 27; details: LLNO.27, read-out: Minimal Inhibitory Concentration
Description: as §1

[12] = test system: Staphylococcus aureus LL No. 45; details: LLNO.45, read-out: Minimal Inhibitory Concentration
Description: as §1

[13] = test system: Staphylococcus aureus Smith; details: read-out: Minimal Inhibitory Concentration
Description: as §1

[14] = test system: Staphylococcus epidermidis ATCC 12228; details: ATCC12228, read-out: Minimal Inhibitory Concentration
Description: as §1

[15] = test system: Staphylococcus epidermidis CMC 83-56; details: CMC8356, read-out: Minimal Inhibitory Concentration
Description: as §1

[16] = test system: Streptococcus faecalis ATCC 29212; details: Enterococcus faecalis, ATCC29212, read-out: Minimal Inhibitory Concentration
Description: as §1

[17] = test system: Streptococcus mutans ATCC 27352-1; details: ATCC27352, read-out: Minimal Inhibitory Concentration
Description: as §1

[18] = test system: Streptococcus mutans BHI (b); details: read-out: Minimal Inhibitory Concentration
Description: as §1

[19] = test system: Streptococcus sanguis G-9B (a); details: read-out: Minimal Inhibitory Concentration
Description: as §1

| Structure (SMILES) | MIC (Acinetobacter STFD 79-17) [µg/mL] | MIC (Bacillus cereus LL No. 4) [µg/mL] | MIC [1] [µg/mL] | MIC (Candida albicans CA 300) [µg/mL] | MIC [2] [µg/mL] | MIC [3] [µg/mL] | MIC (Enterococcus OSU 75-1) [µg/mL] | MIC (Enterococcus SM 77-15) [µg/mL] | MIC (Escherichia coli 311) [µg/mL] | MIC [4] [µg/mL] | MIC (Klebsiella pneumoniae AD) [µg/mL] | MIC [5] [µg/mL] | MIC [6] [µg/mL] | MIC (Proteus morganii K79-25) [µg/mL] | MIC [7] [µg/mL] | MIC [8] [µg/mL] | MIC (Saccharomyces Y 15) [µg/mL] | MIC (Salmonella QHC 77-3) [µg/mL] | MIC (Serratia Tul 78-15) [µg/mL] | MIC [9] [µg/mL] | also measured |
| --- | --- | --- | --- | --- | --- | --- | --- | --- | --- | --- | --- | --- | --- | --- | --- | --- | --- | --- | --- | --- | --- |
| CCOC(=O)c1csc(N[C@@H]2C(=O)N3C(C(=O)O)=C(COC(C)=O)CS[C@H]23)n1 [Example 2] | > 512 | 64 (≈ 150 µM) | 4 (≈ 9.36 µM) | > 512 | 512 (≈ 1200 µM) | > 512 | 128 (≈ 299 µM) | 128 (≈ 299 µM) | 512 (≈ 1200 µM) | > 512 | 512 (≈ 1200 µM) | 4 (≈ 9.36 µM) | 128 (≈ 299 µM) | > 512 | > 512 | > 512 | 128 (≈ 299 µM) | > 512 | > 512 | 1 (≈ 2.34 µM) | MIC [10]: 1 µg/mL (≈ 2.34 µM); MIC [11]: 4 µg/mL (≈ 9.36 µM); MIC [12]: 1 µg/mL (≈ 2.34 µM); MIC [13]: 1 µg/mL (≈ 2.34 µM); MIC [14]: 0.5 µg/mL (≈ 1.17 µM); MIC [15]: 0.5 µg/mL (≈ 1.17 µM); MIC [16]: 128 µg/mL (≈ 299 µM); MIC [17]: ≤ 0.25 µg/mL; MIC [18]: ≤ 0.25 µg/mL; MIC [19]: 4 µg/mL (≈ 9.36 µM) |
| CC(=O)OCC1=C(C(=O)O)N2C(=O)[C@@H](Nc3nc(-c4ccccc4)cs3)[C@H]2SC1 [Example 3, (6R-trans)-3-[(Acetyloxy)methyl]-8-oxo-7-[(4-phenyl-2-thiazolyl)amino]-5-thia-1-azabicyclo[4.2.0]oct-2-ene-2-carboxylic acid] | > 512 | 128 (≈ 297 µM) | 8 (≈ 18.5 µM) | > 512 | > 512 | > 512 | 256 (≈ 593 µM) | 256 (≈ 593 µM) | > 512 | > 512 | > 512 | 8 (≈ 18.5 µM) | 256 (≈ 593 µM) | > 512 | > 512 | > 512 | 256 (≈ 593 µM) | > 512 | > 512 | 8 (≈ 18.5 µM) | MIC [10]: 4 µg/mL (≈ 9.27 µM); MIC [11]: 16 µg/mL (≈ 37.1 µM); MIC [12]: 4 µg/mL (≈ 9.27 µM); MIC [13]: 8 µg/mL (≈ 18.5 µM); MIC [14]: 16 µg/mL (≈ 37.1 µM); MIC [15]: 8 µg/mL (≈ 18.5 µM); MIC [16]: 256 µg/mL (≈ 593 µM); MIC [17]: 8 µg/mL (≈ 18.5 µM); MIC [18]: 0.5 µg/mL (≈ 1.16 µM); MIC [19]: 1 µg/mL (≈ 2.32 µM) |
